According to US20250066423A1, “SESTRIN-MAPK COMPLEX INHIBITORS” (Sentcell Ltd, priority 2021, published 2025):
Peptide text beside a SMILES is read from it.

Tests used:
[1] = target: T1, recombinant sestrin 3 (Homo sapiens, UniProt P58005); assay: Streptavidin pull-down of biotinylated DOS46L with flag recombinant sestrins; assay type: binding; conditions: in vitro
T1 sequence (P58005 1-492): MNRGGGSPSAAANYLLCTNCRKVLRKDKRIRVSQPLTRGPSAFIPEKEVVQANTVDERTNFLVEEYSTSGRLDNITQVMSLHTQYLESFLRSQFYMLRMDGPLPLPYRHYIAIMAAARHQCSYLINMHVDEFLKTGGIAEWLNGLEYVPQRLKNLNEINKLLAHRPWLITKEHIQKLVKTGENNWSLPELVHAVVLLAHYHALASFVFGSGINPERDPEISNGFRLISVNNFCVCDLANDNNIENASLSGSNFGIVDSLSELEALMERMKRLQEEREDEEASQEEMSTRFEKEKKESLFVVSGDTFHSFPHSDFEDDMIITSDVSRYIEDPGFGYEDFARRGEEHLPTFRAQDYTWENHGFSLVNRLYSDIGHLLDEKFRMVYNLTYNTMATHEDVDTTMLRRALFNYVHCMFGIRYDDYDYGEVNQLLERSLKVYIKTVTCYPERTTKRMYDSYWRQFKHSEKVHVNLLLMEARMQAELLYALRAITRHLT
Method: However, it should be considered that direct binding is not a pre-requisite for DOS sestrin inhibitory function.
(A) Biotinylated DOS46L was mixed with flag recombinant Sestrins, immunoprecipitated with streptavidin and immunoblotted with flag Sestrins. […] Representative images from three experiments are shown. […] (D) DOS46L binds to the entire sMAC complex in CD4 T cells. CD4+ T cells were isolated from PBMCs from healthy donors and treated with biotinylated DOS46L compound (10 uM) for 4 hours. Cells were harvested for immunoprecipitation analysis.

[2] = test system: T cells; assay: Seahorse assay for cell metabolism (OCR, FAO); assay type: cell-based, human; conditions: T cells treated for 24h
Method: Senescent T cells and stem cells were analysed using FACS analysis. (B—C) Represented is the ratio to untreated sample. Each dot is an individual donor. (D) Oxygen Consumption Rate (OCR) of T cells treated with DOS46L for 24h were measured by Seahorse. […] (E) The FAO index was calculated by OCR difference between Ctrl and DOS46L treated T cells in the presence or in the absence of the FAO inhibitor etomoxir by Seahorse. Student's T-test was used to analyse the data. **p<0.01; ***p<0.001.
• 1. CD4+ cells were purified from PBMC using appropriate microbeads (Miltenyi) • 2. Purified CD4+ cells were activated with CD3/CD28 Dynabeads (Gibco) and treated over-night with DOS46L at 10 μM. • 3. Day after, the conventional growth media was removed from the cells and was added the “substrate-limited growth media” composed of basic DMEM plus 0.5 mM glucose, 1 mM glutamine and 1% FBS. • 4. Cells were then incubated with this media for 4 hrs in incubator. • 5. Cells were then counted and plated at the concentration of 2*10^5 cells/well in the XF96 well plate pre-treated with poly-lysine. • 6. Cells were then supplemented with the “assay media” composed of XF DMEM with 2 mM of glucose and 0.5 mM L-carnitine. • 7. […] Seahorse machine took reads of OCR values at different time points for the time span of 120 mins. […] Cells were left in incubator for 12 days and then they were analysed.

[3] = test system: sestrin mRNA; assay: Sestrin mRNA expression in spleens of DOS treated old mice (qPCR); assay type: in vivo; conditions: single dose, from day ten
Method: FIG. 13 illustrates the level of Sestrin in DOS-treated murine blood and tissues. (A-B) Old mice were inoculated subcutaneously with DOS46L compound (0.1 mg/kg or 1 mg/kg). Blood was withdrawn at 0, 48, 72 hours and 8 weeks after the inoculation. Pharmacodynamics of Sestrin 2 were analysed by FACS in CD4+ T cell population. […] Untreated age-matched controls are shown. (D) 72 hr after DOS treatment, mice were sacrificed and old tissues were collected to analyse Sestrin levels in different organs by immunoblotting. **p<0.01, *p<0.05.
• 1. Transduced cells were collected • 2. Cell suspension was centrifugated and the cell pellet resuspended in warm PBS with 5 μM of CTV • 3. Followed an incubation of 10 min at 37° C. • 4. Cold PBS was added and cells were centrifugated • 5. Cells were then resuspended in medium and counted • 6. An aliquot of these cells were checked by FACS • 7. Cells were then stimulated with DOS in 200 μL and left for 12 days in culture RNA Extraction, Retro-Transcription and qPCR • 1. CD4+ cells were purified from mouse spleen using appropriate microbeads (Miltenyi) • 2. Total RNA from CD4+ cells was extracted using the “PureLink RNA Mini Kit” (Invitrogen). • 3. RNA concentration was acquired by NANO-DROP spectrophotometer (Thermo-Scientific). • 4. […]

[4] = test system: H1N1 PR8/54; assay type: in vivo, mice
[5] = test system: H1N1; assay: Autoptic lung analysis and viral clearance (qPCR of viral protein PA) in lungs of old mice; conditions: mouse, in vivo
[6] = test system: T cells (senescent CD3+ CD4+ CD27− CD28− population); conditions: DOS-FITC 10 μM, 4 hrs
Method: (A-B) CD4+ T cells were isolated from peripheral blood mononuclear cells (PBMCs) from healthy donors and treated with DOS compounds. (A) Representative confocal images of CD4+ T cells stained with DOS-FITC and CD3-AF594. (B) Quantification of DOS46L penetration by flow cytometry in CD4+ CD27-CD28-cells (Tsen) and in CD4+CD27+CD28+ (Terl).
Purified T cells were plated at the concentration 1*10^6 cell/well in 24 well plate • 2. Cells were treated with 10 μM of DOS-FITC for 4 hrs • 3. Then collected and centrifuged at 500 g for 5 mins • 4. Washed two times with ice-cold PBS • 5. Cells were resuspended in 200 ul of PBS and plated in a pre-treated coverslip with poly-lysine • 6. Cells were fixed with 4% of formaldehyde in ice for 20 mins • 7. Washed three times with PBS • 8. Blocked with PBS-BSA 5% • 9. Cells were then incubated with primary antibody (anti-CD3 1:100) overnight at 4 C • 10. Washed three times with PBS • 11. Then incubated with secondary antibody (anti-mouse conjugated with AF-594; 1:250) for 1 hr at room temperature • 12. Washed three times with PBS 13. Cells were permeabilized with Triton 0.25% in PBS for 2 mins • 14. Followed incubation with antibody anti-KDEL (Abcam) and anti-sestrin 2 (Gentex) diluted 1:100 at 4 C over-night • 15. Washed for three times with PBS • 16. […]

CC[C@H](C)[C@@H]1NC(=O)[C@H](Cc2ccccc2)NC(=O)[C@H](C)NC(=O)[C@H](C(C)C)NC(=O)[C@@H]2CCCN2C1=O [DOS46L] (cyclo(AFIPV))
direct binding to recombinant sestrin 3 [1]: does not directly bind
oxidative metabolism and Fatty Acid Oxidation (FAO) [2]: Induction of Fatty Acid Oxidation (FAO)
sestrin mRNA expression [3]: Long term mRNA silencing of sestrin expression
relative effectiveness at low dose ([4]; 0.1. mg/Kg): more effective at a very low dose
survival data, comparison of compounds ([4]; old mice, vaccination with DOS, H1N1 PR8/54): similar
lung necrosis [5]: protection from lung necrosis
cell penetration [6]: able to penetrate T cells
